Results from patent publication US20250332212A1, “METHOD FOR TREATING OR PREVENTING ALOPECIA” (Suzhou Mingren Pharmaceutical Biotechnology Co., Ltd., priority 2024, published 2025).
Square brackets hold non-standard residues; d marks the D form. Ends that are not written are not given here. pS = N[C@@H](COP(=O)(O)O)C(=O)O

Legend:
[1] = test system: TP-induced AGA model mice; experiment: TP-induced AGA model, Animal model I (JP1 intraperitoneal or topical skin-coating); type: in vivo, C57BL/6J male mice
Text: C57BL/6 mice were selected for modeling in this example according to the first design scheme (FIG. 1A). For more details, see “Animal model I” of “1. TP-induced AGA model” in “Experimental Methods” below.
The mice used in this study were 5-week-old C57BL/6J male mice (18-20 g), which were purchased from Jiangsu Jicui Pharmachem Biotechnology Co. All the animals used in the experiments were housed in the SPF-level environment of the Medical Laboratory Animal Center of Nanjing Medical University, and the relevant animal experimental operations were approved by the Animal Ethics Committee of Nanjing Medical University. The control group was left untreated, and the other groups were injected with TP subcutaneously on their backs every day. Two weeks later, the hair on the backs of the mice was shaved with an electric razor, covering an area of 2 cm×4 cm, and then the residual hair was removed with a hair removal cream. The subcutaneous injections of TP on the shaved backs of the mice in the AGA model was continued until the end of the experimental period, and the administration of TP in each of the treatment groups was begun on the 1st day of the dehairing process.
In addition to the normal control group (denoted as control) n=3, all mice injected subcutaneously with TP were randomly divided into the following groups (n=3): the model group (denoted as model), the 1 wt. % JP1 and 2% JP1 (intraperitoneal), the 1% JP1 and 2% JP1 (topical skin-coating, denoted as apply), the 5% minoxidil group, and the 2% JP1 (intraperitoneal) combined with 5% minoxidil group. The mice were administered continuously for 35 days, euthanized.
Mice were weighed every two days during the experiment. Skin color was assessed against skin score charts. The mice were euthanized and treated at the end of the experiment, and skin tissues were taken from the dorsal decorticated area of the mice. Some of the tissues were fixed with 4% paraformaldehyde solution and then paraffin sections were made for H&E or immunofluorescence staining, etc., and some of the tissues were stored in the refrigerator at −80° C. for relevant molecular expression assays (qRT-PCR, Western Blot, IP, etc.).
8.1) Sampling and fixation: After the experiment, skin tissue was taken from the depilated area on the back of the mouse and placed in a 10 mL EP tube. 4% paraformaldehyde was added to the EP tube, and all tissues were immersed to denature and coagulate the proteins of the skin tissue. The original morphology and structure of the cells were maintained.
8.6) H&E staining: the sections pretreated in distilled water were put into aqueous hematoxylin solution for a few minutes for staining. The color was separated in acid water and ammonia for a few seconds each. After rinsing in running water for 1 h, the sections were placed in distilled water for a few moments. The sections were dehydrated in 70% and 90% alcohol for 10 min each, and stained in alcoholic eosin stain for 2-3 min.

AR = experiment: qPCR of AR mRNA in skin tissue of model mice; type: in vivo, mouse; settings: model II, P>0.05
Description: (§1) 6.1) Sample preparation: 15-20 mg of mouse skin tissue was placed in a 1.5 mL centrifuge tube, and 600 μL of pre-cooled lysate was quickly added, and homogenized with an electric homogenizer. The homogenate obtained was blown gently 10 times, left at room temperature for 3-5 min, then centrifuged at 14,000×g for 5 min, and the supernatant was transferred to a new centrifuge tube with a pipette gun of suitable volume.
6.10) Reverse transcribe the RNA into cDNA according to the instructions of the reverse transcription kit, and then carry out subsequent experiments or store at −20° C. for later use.
(§2) 7.1) Dilute the specific gene amplification primers to 10 µM in ddH2O, prepare the qPCR reaction system according to the instructions in the kit and add them sequentially into a 384-well plate.
(§3) 7.3) Relative mRNA expression levels of genes were calculated by the […] relative quantification method using GAPDH as an internal reference.

Wnt signaling pathway = experiment: Proteomics and protein phosphorylation sequencing of skin tissue (KEGG, GSEA); type: in vivo, mouse
Description: Appropriate amounts of mouse skin tissues (n=3) from the model group and 1% JP1 group were added to a mortar pre-cooled with liquid nitrogen, and ground thoroughly with liquid nitrogen into powders. The samples were separately added to lysis buffer and lysed by ultrasonication. The centrifugation was performed at 4° C., 12,000×g for 10 min, and protein concentration was determined by BCA. Trypsin digestion was followed by liquid chromatography-mass spectrometry serial analysis.

Lef1 = experiment: qPCR of Lef1 mRNA in skin tissue; type: in vivo, mouse
Description: as §1, §2, §3

Wnt1, Wnt3a, Wnt7b = experiment: qPCR of the other Wnt molecules in skin tissue; type: in vivo, mouse; settings: P>0.05
Description: To illustrate the regulation of JP1 on the upstream Wnt ligand of β-catenin, this example intersected classical signaling pathway-related Wnt ligands and AGA-related Wnt ligands, and screened out the related Wnt ligands, including Wnt1, Wnt3a, Wnt7b, Wnt10a, and Wnt10b. In this example, qPCR was used to detect the mRNA expression of these Wnt molecules in the skin tissue of the mouse model in Example 6.
as §2, §3

SP1 = SP1 expression in skin tissue (qPCR, immunoblotting, immunofluorescence); type: in vivo, mouse
Description: (§4) 4.1) Protein extraction: 70 mg of skin tissue was placed in a 1.5 mL centrifuge tube, and 500 μL of tissue lysate RIPA containing protease inhibitor and phosphatase inhibitor was added. The tissue was placed on an ice box, pulverized by a tissue grinder, and then ultrasonically crushed to obtain a tissue suspension, which was then placed in a rotary windmill at 4° C. to be lysed for 2 h. The centrifuge was set at 12,000×g, 4° C., centrifuged for 15 min, and the supernatant was collected as the total protein.
(§5) 5.1) Heating of protein samples: the total protein content of each tissue was 50 μg; calculate the volume of a corresponding protein sample, make up the volume with saline to 16 μL, then add 4 μL of 5×SDS sampling buffer, heat at 100° C. for 5 min, and then cool at room temperature and store at −20° C.
as §2, §3
9.5) Primary antibody incubation: the tissue was circled by the histochemical pen, about 50 μL of primary antibody was added dropwise to the tissue, and incubated in a wet box overnight at 4° C., washed 3 times with PBS.

p-c-Raf = experiment: Immunoblotting of p-c-Raf in skin tissue; type: in vivo, mouse
Description: as §4, §5
5.7) Primary antibody incubation: the cut protein bands were placed into the corresponding primary antibody and incubated at 4° C. on a shaker overnight, washed with TBST 3 times for 10 min/time.

[2] = H&E longitudinal section, each JP1 treatment group vs model and solvent groups

FPGSDRF-RGD (FPG[pS]DRFRGD) [JP1, amino acid S is phosphorylated; JWA peptide]
hair growth index (skin color score) vs model group ([1]; 1% JP1, intraperitoneal injection, P>0.05): statistically not significant | hair growth index (skin color score) vs solvent group (vehicle (apply)) ([1]; 2% JP1 (apply), topical skin coating): higher than that of the solvent group | hair growth index (skin color score) vs model group ([1]; 2% JP1 (apply), topical skin coating, P<0.05): higher than that of the model group | hair growth index (skin color score) vs model group ([1]; 2% JP1, intraperitoneal injection, P<0.001): significantly higher than that of the model group | hair growth (skin appearance on the back) ([1]; AGA mice, JP1 injected intraperitoneally or applied to the skin): promoted hair growth | dermal layer thickness [1, 2]: increased dermal layer thickness | hair follicle length [1, 2]: longer hair follicle length | difference in body weight gain between groups ([1]; during mouse modeling, P>0.05): not statistically significant | effect on hair follicle cycle relative to minoxidil ([1]; skin of AGA model mice): comparable to the effect of minoxidil | hair follicle cycle (resting phase / anagen phase) ([1]; skin of AGA model mice): shorten the resting phase of the hair follicle | AR mRNA level, difference between groups (AR): no statistically significant difference | KEGG signaling pathway analysis, differences 1% JP1 vs model group (Wnt signaling pathway; skin tissue, proteomics): mainly enriched in the Wnt signaling pathway | GSEA analysis of Wnt/β-catenin signaling pathway (Wnt signaling pathway; skin tissues of JP1-treated mice): enriched | Lef1 mRNA expression vs model group (Lef1): increased | mRNA levels of the other Wnt molecules among the groups (Wnt1, Wnt3a, Wnt7b): not statistically significant | SP1 immunofluorescence (SP1): consistent with the protein immunoblotting results | SP1 protein expression level (SP1; immunoblotting): elevated trend | SP1 mRNA expression (SP1; qPCR): high expression | SP1 mRNA expression level, 1% JP1 group vs 0.1% JP1 group (SP1; qPCR, P<0.05): significantly higher than that in the 0.1% JP1 group | p-c-Raf protein level (p-c-Raf): not significantly altered
